# PubChem BioAssay AID258 (DTP/NCI, 2004)
# “And” between values parts separate entries of the source, which are not always exact repeats. Identical values can stand only once. Toxic doses and inconclusive results are not listed.
# Test system: CD2F1 mice, L1210 leukemia sc, survival T/C
# Test: NCI In Vivo Anticancer Drug Screen. Data for tumor model L1210 Leukemia (subcutaneous) in CD2F1 (CDF1) mice
# Settings: endpoint: median survival time, higher = longer survival
# Method in brief: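 T/C ratio: treated-group survival or tumor size over vehicle-control group measurement, in mice carrying transplanted tumors.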
smiles,measurement,setting,value
CN(Cc1cnc2nc(N)nc(N)c2n1)c1c(Cl)cc(C(=O)NC(CCC(=O)O)C(=O)O)cc1Cl (centres undefined),T/C,"dose: 5.83 mg/kg/injection, schedule: Q#A X Z (oral), vehicle: other",163 % of control
same,T/C,"dose: 8.1 mg/kg/injection, schedule: Q#A X Z (oral), vehicle: other",220 % of control
same,T/C,"dose: 8.1 mg/kg/injection, schedule: Q#A X Z (sc), vehicle: other",655 % of control
same,T/C,"dose: 9.72 mg/kg/injection, schedule: Q#A X Z (oral), vehicle: other",204 % of control
same,T/C,"dose: 9.72 mg/kg/injection, schedule: Q#A X Z (sc), vehicle: other",345 % of control
same,T/C,"dose: 13.5 mg/kg/injection, schedule: Q#A X Z (oral), vehicle: other",230 % of control
same,T/C,"dose: 13.5 mg/kg/injection, schedule: Q#A X Z (sc), vehicle: other",730 % of control
same,T/C,"dose: 16.2 mg/kg/injection, schedule: Q#A X Z (sc), vehicle: other",322 % of control
same,T/C,"dose: 22.5 mg/kg/injection, schedule: Q#A X Z (oral), vehicle: other",190 % of control
same,T/C,"dose: 22.5 mg/kg/injection, schedule: Q#A X Z (sc), vehicle: other",690 % of control
same,T/C,"dose: 25.0 mg/kg/injection, schedule: Q01DX Z (sc), vehicle: other",500 % of control
same,T/C,"dose: 27.0 mg/kg/injection, schedule: Q01DX Z (oral), vehicle: other",186 % of control and 215 % of control
same,T/C,"dose: 27.0 mg/kg/injection, schedule: Q01DX Z (sc), vehicle: other",331 % of control and 565 % of control and 900 % of control
same,T/C,"dose: 27.0 mg/kg/injection, schedule: Q#A X Z (sc), vehicle: other",786 % of control
same,T/C,"dose: 28.0 mg/kg/injection, schedule: Q01DX Z (oral), vehicle: other",194 % of control
same,T/C,"dose: 37.5 mg/kg/injection, schedule: Q#A X Z (oral), vehicle: other",175 % of control
same,T/C,"dose: 37.5 mg/kg/injection, schedule: Q#A X Z (sc), vehicle: other",565 % of control
same,T/C,"dose: 45.0 mg/kg/injection, schedule: Q01DX Z (oral), vehicle: other",181 % of control and 210 % of control
same,T/C,"dose: 45.0 mg/kg/injection, schedule: Q01DX Z (sc), vehicle: other",363 % of control and 825 % of control
same,T/C,"dose: 47.0 mg/kg/injection, schedule: Q01DX Z (oral), vehicle: other",222 % of control
same,T/C,"dose: 47.0 mg/kg/injection, schedule: Q01DX Z (sc), vehicle: other",816 % of control
same,T/C,"dose: 50.0 mg/kg/injection, schedule: Q01DX Z (sc), vehicle: other",500 % of control
same,T/C,"dose: 62.5 mg/kg/injection, schedule: Q#A X Z (sc), vehicle: other",175 % of control
same,T/C,"dose: 75.0 mg/kg/injection, schedule: Q01DX Z (oral), vehicle: other",159 % of control and 190 % of control
same,T/C,"dose: 75.0 mg/kg/injection, schedule: Q01DX Z (sc), vehicle: other",231 % of control and 554 % of control and 800 % of control
same,T/C,"dose: 75.0 mg/kg/injection, schedule: Q03DX Z (oral), vehicle: other",100 % of control
same,T/C,"dose: 75.0 mg/kg/injection, schedule: Q#A X Z (oral), vehicle: other",122 % of control
same,T/C,"dose: 78.0 mg/kg/injection, schedule: Q01DX Z (oral), vehicle: other",188 % of control
same,T/C,"dose: 78.0 mg/kg/injection, schedule: Q01DX Z (sc), vehicle: other",272 % of control
same,T/C,"dose: 108.0 mg/kg/injection, schedule: Q## X Z (oral), vehicle: other",110 % of control
same,T/C,"dose: 108.0 mg/kg/injection, schedule: Q## X Z (sc), vehicle: other",115 % of control
same,T/C,"dose: 125.0 mg/kg/injection, schedule: Q01DX Z (oral), vehicle: other",172 % of control and 200 % of control
same,T/C,"dose: 125.0 mg/kg/injection, schedule: Q01DX Z (sc), vehicle: other",205 % of control
same,T/C,"dose: 125.0 mg/kg/injection, schedule: Q03DX Z (oral), vehicle: other",100 % of control
same,T/C,"dose: 125.0 mg/kg/injection, schedule: Q03DX Z (sc), vehicle: other",513 % of control
same,T/C,"dose: 130.0 mg/kg/injection, schedule: Q01DX Z (oral), vehicle: other",200 % of control
same,T/C,"dose: 130.0 mg/kg/injection, schedule: Q01DX Z (sc), vehicle: other",194 % of control
same,T/C,"dose: 180.0 mg/kg/injection, schedule: Q## X Z (oral), vehicle: other",115 % of control
same,T/C,"dose: 180.0 mg/kg/injection, schedule: Q## X Z (sc), vehicle: other",115 % of control
same,T/C,"dose: 208.0 mg/kg/injection, schedule: Q03DX Z (oral), vehicle: other",113 % of control
same,T/C,"dose: 208.0 mg/kg/injection, schedule: Q03DX Z (sc), vehicle: other",272 % of control
same,T/C,"dose: 216.0 mg/kg/injection, schedule: Q01DX Z (oral), vehicle: other",172 % of control
same,T/C,"dose: 216.0 mg/kg/injection, schedule: Q01DX Z (sc), vehicle: other",155 % of control
same,T/C,"dose: 250.0 mg/kg/injection, schedule: Q## X Z (sc), vehicle: other",500 % of control
same,T/C,"dose: 300.0 mg/kg/injection, schedule: Q## X Z (oral), vehicle: other",110 % of control
same,T/C,"dose: 300.0 mg/kg/injection, schedule: Q## X Z (sc), vehicle: other",120 % of control
same,T/C,"dose: 347.0 mg/kg/injection, schedule: Q03DX Z (oral), vehicle: other",109 % of control
same,T/C,"dose: 347.0 mg/kg/injection, schedule: Q03DX Z (sc), vehicle: other",195 % of control
same,T/C,"dose: 360.0 mg/kg/injection, schedule: Q01DX Z (oral), vehicle: other",166 % of control
same,T/C,"dose: 500.0 mg/kg/injection, schedule: Q## X Z (oral), vehicle: other",115 % of control
same,T/C,"dose: 500.0 mg/kg/injection, schedule: Q## X Z (sc), vehicle: other",370 % of control and 500 % of control
same,T/C,"dose: 577.0 mg/kg/injection, schedule: Q03DX Z (oral), vehicle: other",150 % of control
same,T/C,"dose: 577.0 mg/kg/injection, schedule: Q03DX Z (sc), vehicle: other",209 % of control
same,T/C,"dose: 833.0 mg/kg/injection, schedule: Q## X Z (oral), vehicle: other",155 % of control
same,T/C,"dose: 833.0 mg/kg/injection, schedule: Q## X Z (sc), vehicle: other",360 % of control
same,T/C,"dose: 961.0 mg/kg/injection, schedule: Q03DX Z (oral), vehicle: other",122 % of control
same,T/C,"dose: 961.0 mg/kg/injection, schedule: Q03DX Z (sc), vehicle: other",172 % of control
CC(=O)OCC(=O)[C@@]1(O)CC[C@H]2[C@@H]3CCC4=CC(=O)CC[C@]4(C)[C@@]3(F)[C@@H](O)C[C@@]21C,T/C,"dose: 300.0 mg/kg/injection, schedule: Q01DX Z (sc), vehicle: methylcellulose (MC)",121 % of control
same,T/C,"dose: 500.0 mg/kg/injection, schedule: Q01DX Z (sc), vehicle: methylcellulose (MC)",115 % of control
